Measurements taken from BigSolDB 2.1.

C#CC(C)(C)NC(=O)c1cc(Cl)cc(Cl)c1
solubility (mole fraction)
Settings | 278.15 K | 283.15 K | 288.15 K | 293.15 K | 298.15 K | 303.15 K | 308.15 K | 313.15 K | 318.15 K | 323.15 K
in cyclohexane | – | 0.000135 | 0.000185 | 0.000293 | 0.000425 | 0.000544 | 0.000704 | 0.00081 | 0.00101 | 0.00124
in ethanol | 0.0071 | 0.00834 | 0.00953 | 0.011 | 0.0131 | 0.0151 | 0.0174 | 0.0205 | 0.0242 | 0.0295
in isopropanol | 0.00219 | 0.00269 | 0.00351 | 0.00526 | 0.00705 | 0.00865 | 0.0112 | 0.0137 | 0.0171 | 0.023
in methanol | 0.00654 | 0.0077 | 0.00892 | 0.0101 | 0.0124 | 0.0145 | 0.017 | 0.0201 | 0.0236 | 0.0283
in toluene | 0.00179 | 0.00238 | 0.00298 | 0.00368 | 0.00467 | 0.00593 | 0.00735 | 0.00924 | 0.0113 | 0.0124
